According to the PolyMetriX glass transition set:
± gives the standard deviation of the reports.

glass transition temperature | SMILES
45.00 °C | *Oc1ccc(CC(NC(=O)CCc2ccc(OC(=O)COCC(*)=O)cc2)C(=O)OCCCCCC)cc1 (repeat unit)
370.00 °C | *C(=O)Nc1ccc(-c2ccc(NC(=O)c3ccc4c(c3)C(=O)N(c3ccc(S(=O)(=O)c5ccc(N6C(=O)c7ccc(*)cc7C6=O)cc5)cc3)C4=O)cc2)cc1 (repeat unit)
287.00 °C | *=Nc1ccc(Oc2ccc(C(c3ccc(Oc4ccc(/N=C5/OC(=O)c6cc7c(cc65)C(=*)OC7=O)cc4)cc3)(C(F)(F)F)C(F)(F)F)cc2)cc1 (repeat unit)
-78.00 °C | *O[Si](*)(C)OCCOCCOCCOCCOCCOCCOCCOCCOC (repeat unit)
332.00 °C | *c1ccc(Nc2c(F)c(F)c(-c3c(F)c(F)c(Nc4ccc(S(*)(=O)=O)cc4)c(F)c3F)c(F)c2F)cc1 (repeat unit)
104.00 °C | *c1ccc(C(=O)OCCCCCCOc2ccc(/C=C3\CCCC/C(=C\c4ccc(OCCCCCCOC(=O)c5ccc(-c6nnc(*)o6)cc5)cc4)C3=O)cc2)cc1 (repeat unit)
228.00 °C | *c1ccc(Oc2ccc(Oc3ccc(N4C(=O)c5ccc(Oc6ccc7ccc(Oc8ccc9c(c8)C(=O)N(*)C9=O)cc7c6)cc5C4=O)cc3)cc2)cc1 (repeat unit)
105.00 °C | *Cc1ccc(CNC(=O)CCCCCCCCCCC(=O)N*)cc1 (repeat unit)
261.00 °C | *c1cccc(Oc2cccc(Oc3cccc(N4C(=O)c5c(c(-c6ccccc6)c(-c6ccc(Oc7ccc(-c8c(-c9ccccc9)c9c(c(-c%10ccccc%10)c8-c8ccccc8)C(=O)N(*)C9=O)cc7)cc6)c(-c6ccccc6)c5-c5ccccc5)C4=O)c3)c2)c1 (repeat unit)
395.00 °C | *c1ccc(C)c(N2C(=O)c3ccc(-c4ccc5c(c4)C(=O)N(*)C5=O)cc3C2=O)c1 (repeat unit)
229.00 °C | *Oc1ccc(C2(c3ccc(Oc4ccc(C(=O)c5ccc(C(=O)c6ccc(*)c(C(F)(F)F)c6)cc5)cc4C(F)(F)F)cc3)c3ccccc3-c3ccccc32)cc1 (repeat unit)
178.00 °C | *C(=O)NCCN(CCNC(=O)c1cccc(N2C(=O)c3ccc(*)cc3C2=O)c1)c1ccc(/C=C/c2ccc([N+](=O)[O-])cc2)cc1 (repeat unit)
314.00 °C | *c1ccc(Oc2ccc(Oc3ccc(-n4c(=O)c5cc6c(=O)n(*)c(=O)c6cc5c4=O)cc3)cc2C(C)(C)C)cc1 (repeat unit)
85.00 °C | *CC(O)COc1ccc(C(C)(C)c2ccc(O*)c(Cl)c2)cc1Cl (repeat unit)
115.00 °C | *Oc1c(Br)cc(C(C)(C)c2cc(Br)c(OC(=O)c3cccc(C(*)=O)c3)c(Br)c2)cc1Br (repeat unit)
122.00 °C | *OS(=O)(=O)c1cccc(C(=O)c2cccc(S(=O)(=O)Oc3ccc(C(C)(C)c4ccc(*)cc4)cc3)c2)c1 (repeat unit)
147.00 °C | *Oc1ccc(-c2ccc(/N=N/c3ccc(C(*)=O)cc3)cc2)cc1 (repeat unit)
68.50 °C | *CCCCCCCCCCOc1c(OC)cc(/C=C/c2ccc(/C=C/c3cc(OC)c(O*)c(OC)c3)cc2)cc1OC (repeat unit)
178.00 °C | *CC(c1ccccc1)C1C(=O)N(C(C)(C)C)C(=O)C1* (repeat unit)
193.00 °C | *c1ccc(Oc2cccc(Oc3ccc(N4C(=O)c5cccc(Oc6cccc(Oc7cccc8c7C(=O)N(*)C8=O)c6)c5C4=O)cc3)c2)cc1 (repeat unit)
288.00 °C | *C(=O)c1ccc2c(c1)C(=O)N(c1ccc(Oc3cc(C(C)(C)C)c(Oc4ccc(N5C(=O)c6ccc(*)cc6C5=O)cc4)cc3C(C)(C)C)cc1)C2=O (repeat unit)
164.50 °C | *Oc1ccc(Sc2ccc(Oc3ccc(-c4ccc(-c5ccc(*)c(C(F)(F)F)c5)cc4)cc3C(F)(F)F)cc2)cc1 (repeat unit)
14.00 °C | *CCSCc1ccc(Cc2ccc(CSCCOC(=O)CSCc3ccc(Cc4ccc(CSCC(=O)O*)cc4)cc3)cc2)cc1 (repeat unit)
120.00 °C | *Oc1ccc(Oc2c(F)c(F)c(-c3c(F)c(F)c(*)c(F)c3F)c(F)c2F)cc1S(=O)(=O)O (repeat unit)
412.00 °C | *c1ccc(N2C(=O)c3ccc(C(=O)c4ccc5c(c4)C(=O)N(c4ccc6[nH]c(*)nc6c4)C5=O)cc3C2=O)cc1 (repeat unit)
198.00 °C | *c1ccc(Oc2ccc(Oc3ccc(-c4ccc(Oc5ccc(Oc6ccc(C7(*)OC(=O)c8ccccc87)cc6)cc5)c5ccccc45)c4ccccc34)cc2)cc1 (repeat unit)
304.00 °C | *Oc1cccc(C(=O)Nc2ccc(S(=O)(=O)c3ccc(NC(=O)c4cccc(Oc5nc(*)nc(Sc6ccccc6)n5)c4)cc3)cc2)c1 (repeat unit)

glass transition temperature | SMILES
56.00 °C | *Oc1ccc(C(C)(C)c2ccc(OC(=O)CC(C)CCC(*)=O)cc2)cc1 (repeat unit)
309.00 °C | *c1ccc(Oc2ccc(Oc3ccc(-c4nnc(*)c5c(-c6ccc(F)cc6)c(-c6ccc(F)cc6)c(-c6ccc(F)cc6)c(-c6ccc(F)cc6)c45)cc3)cc2)cc1 (repeat unit)
-10.00 °C | *c1ccc(-c2ccc([Si](*)(CCCC)CCCC)s2)s1 (repeat unit)
217.00 °C | *Oc1ccc(C2(c3ccc(OC(*)=O)c(C)c3)CC3CC2C2CCCC32)cc1C (repeat unit)
290.00 °C | *OC(=O)c1ccc(C(=O)Oc2ccc3c(c2)Oc2cc(*)ccc2C32c3ccccc3-c3ccccc32)cc1 (repeat unit)
223.00 °C | *C(=O)Nc1ccc(Oc2ccc(N3C(=O)CC(N4C(=O)c5ccc(*)cc5C4=O)C3=O)cc2)cc1 (repeat unit)
105.70 °C | *CCOC(=O)Nc1ccc(CCCCc2ccc(NC(=O)O*)cc2)cc1 (repeat unit)
199.50 °C | *Nc1ccc(NC(=O)c2ccc(NC(=O)CCCCCCCCCCCCC(=O)Nc3ccc(C(*)=O)cc3)cc2)cc1C(=O)OCCCCCCCCCCCC (repeat unit)
258.00 °C | *C(=O)c1ccc2c(c1)C(=O)N(c1cccc(Cc3ccccc3N3C(=O)c4ccc(*)cc4C3=O)c1)C2=O (repeat unit)
35.00 °C | */C=C(\C#N)C(=O)OCCCCCCCCCCOC(=O)/C(C#N)=C/c1ccc2c(c1)c1cc(*)ccc1n2CCCCCCCCCCCCCC (repeat unit)
385.00 °C | *c1ccc(-c2ccc(-n3c(=O)c4c(C(F)(F)F)c5c(=O)n(*)c(=O)c5c(C(F)(F)F)c4c3=O)cc2C)c(C)c1 (repeat unit)
160.00 °C | *Nc1ccc(Cc2ccc(NC(=O)CCCCCCCCC(*)=O)cc2)cc1 (repeat unit)
-63.40 °C | *O[Si](*)(CCCOCCOCCOC)CCCOCCOCCOC (repeat unit)
20.00 °C | */C=C(/*)CCCOc1ccc(OC(=O)c2ccc(OC)cc2)cc1 (repeat unit)
90.00 °C | *Nc1cc(NC(=O)c2ccccc2C(*)=O)cc(-c2nnc(-c3ccccn3)o2)c1 (repeat unit)
-20.00 °C | *CC(*)c1ccc(COCCCCCC)cc1 (repeat unit)
29.00 °C | *c1ccc2c(c1)C(CCCCCCCC)(CCCCCCCC)c1cc(-c3c(F)c(F)c(*)c(F)c3F)ccc1-2 (repeat unit)
167.00 °C | */C=C/c1ccc(/C=C/c2ccc3c(c2)Sc2cc(*)ccc2N3c2ccc(OCCCCCCCCCCCC)cc2)cc1 (repeat unit)
272.50 ± 33 °C | *C(=O)c1ccc2c(c1)C(=O)N(c1c(CC)cc(Cc3cc(CC)c(N4C(=O)c5ccc(*)cc5C4=O)c(CC)c3)cc1CC)C2=O (repeat unit)
-55.00 °C | *O[Si](*)(C)CCCCCCCCCCCOc1ccc(/C=C/c2ccc(C#N)cc2)cc1 (repeat unit)
87.00 °C | *CC(*)(C)C(=O)OCc1ccc2c(c1)c1ccccc1n2CCCC (repeat unit)
190.50 °C | *c1cccc(Oc2cccc(Oc3cccc(N4C(=O)c5ccc(Oc6ccc(Sc7ccc(Oc8ccc9c(c8)C(=O)N(*)C9=O)cc7)cc6)cc5C4=O)c3)c2)c1 (repeat unit)
231.00 °C | *Oc1ccc(C2(c3ccc(Oc4ccc(C(=O)c5ccc(Oc6ccc(C(=O)c7ccc(*)cc7)cc6)cc5)cc4)cc3)c3ccccc3-c3ccccc32)cc1 (repeat unit)
222.00 °C | *c1ccc2c(c1)C(=O)N(c1ccc(Oc3ccc(C(=O)c4cccc(N5C(=O)c6ccc(C(*)(C(F)(F)F)C(F)(F)F)cc6C5=O)c4)cc3)c(C(F)(F)F)c1)C2=O (repeat unit)
209.00 °C | *CC1CC(CNC(=O)c2cccc(C(=O)N*)c2)CC(C(C)(C)C)C1 (repeat unit)
220.00 °C | *c1ccc(-c2ccc(N(c3ccccc3)c3ccc(-c4ccc(N(c5ccccc5)c5ccc(-c6ccc(-n7c(=O)c8cc9c(=O)n(*)c(=O)c9cc8c7=O)cc6)cc5)cc4)cc3)cc2)cc1 (repeat unit)

SMILES | glass transition temperature
*CC(*)c1cc(C)ccc1C (repeat unit) [Poly(2,5-dimethyl styrene) ] | 143 ± 0.6 °C
*Oc1cccc(OC(=O)CCC(*)=O)c1 (repeat unit) | 38.20 °C
*CC(COCC=C)S* (repeat unit) | -59.00 °C
*OC(CC(*)=O)C(Cl)(Cl)Cl (repeat unit) | 163.50 °C
*CC(*)c1ccccc1C(=O)N(C)C (repeat unit) | 190.00 °C
*CC(*)(C)C(=O)OCCC#N (repeat unit) | 91.00 °C
*CCCCOc1ccc(/C=C2\CC/C(=C\c3ccc(OCCCCOP(=O)(O*)OC)c(OC)c3)C2=O)cc1OC (repeat unit) | 75.00 °C
*O[Si](*)(C)CCCCC (repeat unit) | -112.00 °C
*OC1C(CO)OC(*)C(O)C1O (repeat unit) | 332.00 °C
*CC1CC(*)OC(CCC)O1 (repeat unit) [Poly(vinyl butyral)] | 54.42 ± 9.2 °C
*Oc1ccc(Oc2ccc(C(=O)c3ccc(P(=O)(c4ccccc4)c4ccc(C(=O)c5ccc(*)cc5)cc4)cc3)cc2)cc1 (repeat unit) | 207.00 °C
